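Values below derive from 48-hour exposures of cells grown in 96-well plates, with endpoints linearly interpolated between the two concentrations bracketing the appropriate inhibition level. TGI: total growth inhibition.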
Experiments:
Experiment in all cases: NCI-60 cell line screen, 48 h
[1] = tested on: ACHN renal
[2] = tested on: EKVX NSCLC
[3] = tested on: SF-539 CNS
[4] = tested on: MOLT-4 leukemia
[5] = tested on: HCT-116 colon
[6] = tested on: SR leukemia
[7] = tested on: M14 melanoma
[8] = tested on: XF 498 CNS
[9] = tested on: LXFL 529 NSCLC
[10] = tested on: SF-268 CNS
[11] = tested on: SK-OV-3 ovarian
[12] = tested on: DMS 114 small cell lung
[13] = tested on: NCI-H23 lung
[14] = tested on: IGROV1 ovarian
[15] = tested on: HCT-15 colon
[16] = tested on: CAKI-1 renal
[17] = tested on: HCC-2998 colon
[18] = tested on: HT29 colon
[19] = tested on: NCI-H522 lung
[20] = tested on: HOP-18 NSCLC
[21] = tested on: NCI-H460 lung
[22] = tested on: SNB-75 CNS
[23] = tested on: UO-31 renal
[24] = tested on: SK-MEL-2 melanoma
[25] = tested on: LOX IMVI melanoma
[26] = tested on: SW-620 colon
[27] = tested on: 786-0 renal
[28] = tested on: KM20L2 colon
[29] = tested on: DLD-1 colon
[30] = tested on: OVCAR-4 ovarian
[31] = tested on: SNB-19 CNS
[32] = tested on: KM12 colon
[33] = tested on: OVCAR-3 ovarian
[34] = tested on: UACC-62 melanoma
[35] = tested on: NCI-H226 lung
[36] = tested on: M19-MEL melanoma
[37] = tested on: TK-10 renal
[38] = tested on: SNB-78 CNS
[39] = tested on: SK-MEL-5 melanoma
[40] = tested on: RPMI-8226 leukemia
[41] = tested on: COLO 205 colon
[42] = tested on: HL-60(TB) leukemia
[43] = tested on: HOP-62 NSCLC
[44] = tested on: DMS 273 small cell lung
[45] = tested on: SN12C renal
[46] = tested on: K-562 leukemia
[47] = tested on: OVCAR-5 ovarian
[48] = tested on: U251 CNS
[49] = tested on: RXF-631 renal
[50] = tested on: SK-MEL-28 melanoma
[51] = tested on: A549 NSCLC

O=C(CC(=O)N1N=C(c2ccccc2)C(N=Nc2ccc(Cl)cc2)C1=O)Nc1ccccc1Cl (stereo unspecified)
TGI [1]: 48.8 µM
TGI [2]: > 100 µM
TGI [3]: 68.2 µM
TGI [4]: > 100 µM
TGI [5]: > 100 µM
TGI [6]: > 100 µM
TGI [7]: > 100 µM
TGI [8]: 89.7 µM
TGI [9]: > 100 µM
TGI [10]: 78 µM
TGI [11]: 40.4 µM
TGI [12]: > 100 µM
TGI [13]: 97 µM
TGI [14]: > 100 µM
TGI [15]: > 100 µM
TGI [16]: 85.1 µM
TGI [17]: > 100 µM
TGI [18]: > 100 µM
TGI [19]: > 100 µM
TGI [20]: 67.8 µM
TGI [21]: > 100 µM
TGI [22]: 41.3 µM
TGI [23]: 78 µM
TGI [24]: 88.6 µM
TGI [25]: > 100 µM
TGI [26]: > 100 µM
TGI [27]: 26 µM
TGI [28]: > 100 µM
TGI [29]: > 100 µM
TGI [30]: 37.2 µM
TGI [31]: 61 µM
TGI [32]: > 100 µM
TGI [33]: 71.4 µM
TGI [34]: 53.3 µM
TGI [35]: 62.6 µM
TGI [36]: > 100 µM
TGI [37]: 38.1 µM
TGI [38]: > 100 µM
TGI [39]: 51.4 µM
TGI [40]: > 100 µM
TGI [41]: > 100 µM
TGI [42]: > 100 µM
TGI [43]: 40.6 µM
TGI [44]: > 100 µM
TGI [45]: > 100 µM
TGI [46]: > 100 µM
TGI [47]: > 100 µM
TGI [48]: 71.1 µM
TGI [49]: > 100 µM
TGI [50]: 52.4 µM
TGI [51]: > 100 µM

From PubChem BioAssay (NCI)
